Assay results: the NIST ThermoML archive (doi:10.1021/je900137r)
± gives the expanded uncertainty stated by the source.

Assay: molar heat capacity at constant volume
Conditions: Liquid, Vacuum adiabatic calorimetry

CCC [propane]
Conditions	molar heat capacity at constant volume [J/K/mol]
101.14 K, 5078 kPa	59.59 ± 0.85
102.31 K, 9415 kPa	59.63 ± 0.85
104.09 K, 13618 kPa	59.63 ± 0.85
105.25 K, 15961 kPa	59.93 ± 0.86
107.01 K, 19580 kPa	59.8 ± 0.86
108.15 K, 22430 kPa	60.17 ± 0.86
109.89 K, 26296 kPa	60.2 ± 0.86
111.02 K, 28556 kPa	60.44 ± 0.87
124.99 K, 4945 kPa	59.16 ± 0.85
126.59 K, 8062 kPa	59.47 ± 0.85
127.81 K, 10414 kPa	59.44 ± 0.85
129.39 K, 13480 kPa	59.66 ± 0.86
130.6 K, 15739 kPa	59.6 ± 0.85
132.17 K, 18723 kPa	60.02 ± 0.86
133.36 K, 20943 kPa	60 ± 0.86
134.92 K, 23869 kPa	60.12 ± 0.86
136.1 K, 26024 kPa	60.14 ± 0.86
137.64 K, 28865 kPa	60.52 ± 0.87
138.81 K, 30978 kPa	60.43 ± 0.87
149.78 K, 4666 kPa	59.78 ± 0.86
150.88 K, 6488 kPa	59.62 ± 0.85
152.48 K, 9113 kPa	59.99 ± 0.86
153.59 K, 10968 kPa	60.1 ± 0.86
155.17 K, 13482 kPa	60.14 ± 0.86
156.27 K, 15303 kPa	60.05 ± 0.86
157.84 K, 17768 kPa	60.44 ± 0.87
158.93 K, 19535 kPa	60.5 ± 0.87
160.49 K, 21973 kPa	60.63 ± 0.87
161.58 K, 23733 kPa	60.93 ± 0.87
163.12 K, 26095 kPa	60.76 ± 0.87
164.21 K, 27828 kPa	61.2 ± 0.88
165.73 K, 30131 kPa	61.05 ± 0.87
166.81 K, 31798 kPa	61.54 ± 0.88
174.72 K, 4244 kPa	60.48 ± 0.87
175.51 K, 5348 kPa	60.54 ± 0.87
177.36 K, 7916 kPa	60.58 ± 0.87
178.15 K, 9061 kPa	60.86 ± 0.87
179.97 K, 11523 kPa	61.04 ± 0.87
180.77 K, 12700 kPa	61.22 ± 0.88
182.57 K, 15077 kPa	61.29 ± 0.88
183.38 K, 16221 kPa	61.34 ± 0.88
185.16 K, 18570 kPa	61.57 ± 0.88
185.97 K, 19691 kPa	61.79 ± 0.88
187.72 K, 22005 kPa	62.06 ± 0.89
188.54 K, 23141 kPa	62.12 ± 0.89
190.27 K, 25385 kPa	62.49 ± 0.89
191.1 K, 26538 kPa	62.39 ± 0.89
192.81 K, 28708 kPa	62.66 ± 0.9
193.64 K, 29843 kPa	62.88 ± 0.9
195.33 K, 31980 kPa	62.87 ± 0.9
196.16 K, 33063 kPa	63.39 ± 0.91
199.29 K, 3434 kPa	62.08 ± 0.89
200.29 K, 4569 kPa	62.02 ± 0.89
201.88 K, 6487 kPa	62.05 ± 0.89
202.88 K, 7627 kPa	62.29 ± 0.89
204.46 K, 9498 kPa	62.44 ± 0.89
205.45 K, 10675 kPa	62.72 ± 0.9
